Experimental data published in patent US20260125727A1, “METHOD FOR PRODUCING A COMPOSITION, A COMPOSITION COMPRISING AN OLIGOSACCHARIDE OBTAINED THEREBY, AND USES THEREOF” (MEIJI CO., LTD., priority 2022, published 2026).

Assays:
[1] = Evaluation of thermal stability of aqueous solution (residual ratio of galactosylkojibiose after heat treatment, HPLC); assay type: physicochemical; conditions: for change of galactosylkojibiose HPLC peak after heat treatment: 120° C. for 20 minutes, 12 wt % solution in buffer
Method: Buffers having various pH values (100 mM citrate-phosphate buffer for pH 3 to 6 and 100 mM phosphate buffer for pH 6 to 8) were used to dissolve the purified and fractionated galactosylkojibiose obtained in Example 3 so that the resulting solutions should have 12° Bx (12 wt %). The solutions were subjected to a heat treatment at 60° C., 80° C., 100° C., and 120° C. for 20 minutes by using an autoclave, and then residual ratio of galactosylkojibiose was evaluated.
The residual ratio was calculated from the results obtained by using HPLC method performed under the following conditions. • Column: SUPELCO apHera™ NH2 HPLC Column • Mobile phase: 68% acetonitrile • Column temperature: 35° C. • Flow rate: 1.0 mL/min • Detection: RI

[2] = tested on: Parabacteroides bacteria; test: Promotion of growth of Parabacteroides bacteria in the intestinal microbiota; conditions: studies of the inventors, no method given
[3] = tested on: Bifidobacterium bacteria; test: Promotion of growth of Bifidobacterium bacteria in the intestinal microbiota; conditions: studies of the inventors, no method given

| decay of galactosylkojibiose after heat treatment ([1]; 60° C. for 20 minutes, any pH value (pH 3 to 8)) | change of galactosylkojibiose HPLC peak after heat treatment ([1]; pH 6 or lower) | change of galactosylkojibiose HPLC peak after heat treatment ([1]; pH 7 or higher, new peak at around 12.1 minutes) | Compound | growth of Parabacteroides bacteria in the intestinal microbiota [2] | growth of Bifidobacterium bacteria in the intestinal microbiota [3] |
| --- | --- | --- | --- | --- | --- |
| not observed | no significant change | decay of the chromatographic peak | OCC1O[C@H](OC2C(O)[C@H](O[C@@H]3OC(CO)[C@H](O)C(O)C3O)C(CO)O[C@H]2O)C(O)C(O)[C@@H]1O (stereo partly drawn) [galactosylkojibiose, α-D-glucopyranosyl-(1→2)-[β-D-galactopyranosyl-(1→4)-]D-glucopyranoside] | promote the growth | promote the growth |
| – | – | – | OCC1O[C@H](OC2[C@H](O)OC(CO)[C@@H](O)[C@@H]2O)C(O)[C@@H](O)[C@@H]1O (stereo partly shown) [kojibiose] | promote the growth | promote the growth |
